Key:
KB cells = assay: MTT cytotoxicity of Doxorubicin-mAb α-IR3, KB cells; format: cell-based; settings: Homo sapiens, 72 h, 3 days, n = 3
Method: (§1) Competition of Doxorubicin-α-IR3 cytotoxicity was done by adding a 10-fold molar excess of α-IR3 antibody. The survival profile of the cells was measured with the MTT assay 72 hr after plating.

NWT-b3 cells = settings: mouse, 72 h
Method: as §1

KB-V cells = assay: MTT cytotoxicity of Doxorubicin-mAb α-IR3, KB-V cells (p-glycoprotein resistant); format: cell-based, human
Method: as §1

NIH 3T3 cells = settings: mouse fibroblasts
Method: as §1

B104 cells [1] = assay: MTT cytotoxicity of paclitaxel•MC192, B104 cells; format: cell-based, rat; settings: addition of 40 nM MC192
Method: (§2) The survival profile of the cells was measured with the MTT assay 72 hr after plating.

NIH-3T3 cells = assay: MTT cytotoxicity of paclitaxel•MC192, cells that do not express p75; format: cell-based, mouse
Method: as §2

B104 cells [2] = assay: Kinetics of paclitaxel cytotoxicity: single bolus versus constant exposure (MTT); format: cell-based, rat
Method: It is likely that a single bolus of paclitaxel•antibody conjugate would be delivered because affected cells would not synthesize additional target receptor. Therefore we tested whether a single bolus of paclitaxel would be an effective cytotoxic agent. Cells were exposed to the indicated concentration of paclitaxel for 30 minutes at 4° C. Then, cells were plated in a 96-well plate (Falcon); this group represents treatment with paclitaxel present in a constant manner. The remaining cells were washed free of excess paclitaxel prior to plating; this group represents a single exposure to paclitaxel. […] Optical density readings of MTT were done in an EIA Plate Reader model 2550 (Bio-Rad) at 595 nm.

B104 cells [3] = format: in vivo; settings: ˜3.5 nM
Method: Nude mice (seven weeks old, female) were used to test the effect of paclitaxel or conjugates in tumor progression. Single cell suspensions of B104 cells (10^5/mouse) were injected subcutaneously in the left flank near the rib cage. Tumor growth was monitored daily. […] Mice were then randomized and treatments were initiated in four groups (n=5 in each group). […] All treatments were done by a total of five injections every two days (for a total of ten days). All injections were done IP on the right side to prevent direct contact of the agents to the tumor growing subcutaneously, and to assure that systemic circulation of the drugs was achieved. Measurements of tumor volume were taken using calipers, every day post treatment for a total of 25 days.
The timeline was: day −14 injection of tumors subcutaneously, days −10, −8, −6, −4, −2 injection of drugs or controls, days 0-25 measurement of tumor growth daily.
Statistical significance of differences in tumor growth among the different treatment groups was determined by the student t test using SYSTAT 7.0 software. P value is significant when it is <0.05.

4-3.6 cells = assay: In vitro survival assay in serum free media (MTT), 4-3.6 cells; format: cell-based, rat; settings: ˜48 hrs, zVAD 20 nM, conjugate 20 nM VAD equivalent, 1 nM 5C3
Method: 4-3.6 cells are placed in serum free media (SFM, PFHM-II, GIBCO, Toronto), where they undergo apoptosis (serum-withdrawal model).
Cells were then cultured for ˜48 hrs. Cell growth/survival was calculated relative to 5% serum (standardized to 100%).

COc1cccc2c1C(=O)c1c(O)c3c(c(O)c1C2=O)C[C@@](O)(C(=O)CO)C[C@@H]3O[C@H]1C[C@H](N)[C@H](O)[C@H](C)O1 [Doxorubicin]
IC50 (KB cells): 60 ± 2 nM | cytotoxicity under ligand competition (NWT-b3 cells): same cytotoxicity whether excess of mlg or α-IR3 was present or not | IC50 (KB-V cells; Homo sapiens, KBV, 72 h, KB-V cells, 3 days, MTT, n = 3): > 320 nM | cytotoxicity on multidrug resistant cells (KB-V cells; KB-V compared to sensitive KB cells, with or without Verapamil): inactive on KB-V cells unless Verapamil was added | cytotoxicity on cells that do not express IGF-IR (NIH 3T3 cells): dose-dependent cytotoxicity

CC(=O)O[C@H]1C(=O)[C@@]2(C)[C@H]([C@H](OC(=O)c3ccccc3)[C@]3(O)C[C@H](OC(=O)[C@H](O)[C@@H](NC(=O)c4ccccc4)c4ccccc4)C(C)=C1C3(C)C)[C@]1(OC(C)=O)CO[C@@H]1C[C@@H]2O [paclitaxel]
cytotoxicity under ligand competition (B104 cells [1]): same cytotoxicity whether or not 40 nM of mouse IgG or 40 nM of MC192 antibody were added | cytotoxicity on cells that do not express p75 (NIH-3T3 cells): dose-dependent cytotoxicity | cytotoxic effect of a single exposure versus constant exposure (B104 cells [2]; 20 nM, after 72 and 96 hours of culture): significantly less effective than constant exposure | cytotoxic effect, single exposure versus constant presence (B104 cells [2]; 30 minutes at 4° C. exposure, several concentrations, MTT 48, 72, 96 hr): generally the same whether the drug is present in the culture throughout or after a single exposure | efficacy in vivo at the dose effective for the conjugate (B104 cells [3]): not effective at this dose

benzoic acid-Valine-Alanine-Aspartic acid-O-methyl-fluoromethylketone peptide [zVAD]
4-3.6 Cell Survival (MTT, % of serum control) (4-3.6 cells): −2 ± 3 % of serum control
